# Reference: publication PMC3032760, “Two-dose-level confirmatory study of the pharmacokinetics and tolerability of everolimus in Chinese patients with advanced solid tumors” (Journal of Hematology & Oncology, 2011)
# Several values for one entry are separate records, joined by “and”; a condition that tells them apart may be missing. Identical values can stand only once. Like-named read-outs stand apart in the source and are kept apart here.
# Assays:
# Type in all cases: in vivo, human
# [1] = Everolimus blood pharmacokinetics (24-h profile day 15, trough levels) in Chinese patients with advanced solid tumors; conditions: for Tmax / Cmax / AUC: human, whole blood; for Tmax: po, read-out: Tmax, median (range); for Cmax / AUC: n = 12, day 15, blood; for Cmax / AUC / Cmin (pre-dose trough concentration): mean (% coefficient of variation); for AUC: read-out: AUC0-τ; for CL/F, mean (± standard deviation): after reaching steady state; for Cmin (pre-dose trough concentration): n = 12, blood; for Time to steady-state levels: continuous daily dosing
# Procedure: Blood samples for everolimus 24-h PK profile were collected on day 15 pre-dose and at 1, 2, 4, 6, 8, and 24 h post-dose; blood samples for everolimus trough concentration were collected pre-dose on days 2, 8, 16, and 22. Everolimus concentration was determined after liquid extraction by a liquid chromatography-mass spectroscopy method with lower limits of quantification for everolimus of 0.3 ng/mL. PK parameters of everolimus determined for each cohort included the maximum blood concentration (Cmax), minimum blood concentration (Cmin), time to maximum concentration (Tmax), area under the dosing curve (AUC0-τ), and total body apparent clearance of drug from the blood (CL/F). PK analyses were performed on all patients in the safety population with a sufficient number of evaluable blood samples.
# [2] = Safety and tolerability: adverse events graded by NCI CTCAE v3.0; conditions: for Deaths during the study: considered unrelated to everolimus
# Description: Safety assessments included incidence, severity, and treatment relationship of adverse and serious adverse events and the regular monitoring of hematology, serum and urine chemistry, vital signs, and physical condition. Adverse events were graded according to the National Cancer Institute's Common Terminology Criteria for Adverse Events, version 3.0 [22]. The safety population consisted of all patients who received ≥1 dose of study drug and had ≥1 post-baseline safety assessment.
# [3] = system: advanced solid tumors; assay: Tumor response and progression by RECIST; conditions: for Best overall tumor response stable disease, patients: n = 12; for Patients with stable disease: both cohorts, 6 patients per tumor type
# Procedure: Tumor response and progression was assessed locally for all randomized patients using RECIST criteria. A computed tomography scan or magnetic resonance image of the chest, abdomen, and pelvis was performed at screening and every 2 months (±7 days) thereafter. Confirmatory imaging results ≥4 weeks after an initial observation were required for a positive assessment of complete or partial response.
# [4] = Patient disposition at final analysis; conditions: n = 12
# Procedure: Patients continued treatment until tumor progression, unacceptable toxicity, death, or discontinued if the investigator or patient felt it was in the patient's best interest to discontinue participation. Dose modifications were allowed in the event of adverse events grade ≥2. Specific nomograms were followed to manage patients who developed known toxicities of everolimus, such as non-infectious pneumonitis.
# This final analysis was performed after all patients had received 6 months of study drug or had discontinued from the study.
# [5] = 5 mg/day, n = 12, suspected relationship to everolimus
# [6] = 10 mg/day, n = 12, suspected relationship to everolimus
smiles,measurement,setting,value
"CO[C@H]1C[C@@H]2CC[C@@H](C)[C@@](O)(O2)C(=O)C(=O)N2CCCC[C@H]2C(=O)O[C@H]([C@H](C)C[C@@H]2CC[C@@H](OCCO)[C@H](OC)C2)CC(=O)[C@H](C)/C=C(\C)[C@@H](O)[C@@H](OC)C(=O)[C@H](C)C[C@H](C)/C=C/C=C/C=C/1C [Everolimus, everolimus]","Cmin, Cmax and AUC0-τ with 10 mg/day relative to 5 mg/day",[1]; 10 mg/day versus 5 mg/day,approximately 2 fold
same,Tmax,"[1]; 5 mg/day, oral 5 mg/day, n = 12",3 h
same,Tmax,"[1]; 10 mg/day, oral 10 mg/day, n = 12",2 h
same,Cmax,[1]; oral 5 mg/day,28.8 ng/mL
same,AUC,[1]; oral 5 mg/day,316 ng·h/mL
same,Cmax,[1]; oral 10 mg/day,53.8 ng/mL
same,AUC,[1]; oral 10 mg/day,589 ng·h/mL
same,"CL/F, mean (± standard deviation)",[1]; oral 5 mg/day,16.7 (±5.6) L/h
same,"Tmax, median (range)","[1]; oral 5 mg/day, n = 12",2.96 (1.00-4.00) h
same,Cmin (pre-dose trough concentration),[1]; oral 5 mg/day,8.3 (46.8) ng/mL
same,"CL/F, mean (± standard deviation)",[1]; oral 10 mg/day,18.2 (±7.2) L/h
same,Cmin (pre-dose trough concentration),[1]; oral 10 mg/day,14.5 (47.9) ng/mL
same,Time at which maximum blood concentrations were generally reached,[1]; oral 5 and 10 mg/day,2 to 4 h
same,Time to steady-state levels,[1]; oral 5 and 10 mg/day,≤ 8 days
same,Time to steady-state levels,"[1]; oral 5 and 10 mg/day, listed as everolimus",8 days
same,"Fatigue suspected to be related to everolimus, patients",[2]; 5 mg/day cohort,16.7%
same,"Hyperglycemia (increased blood glucose) suspected to be related to everolimus, patients",[2]; 5 mg/day cohort,16.7%
same,Patients with grade 3 adverse events suspected to be related to everolimus,[2]; 5 mg/day cohort,25%
same,Deaths during the study,[2]; 5 mg/day cohort,1
same,"Adverse events with suspected relationship to everolimus: Total, All grades","[2]; 5 mg/day, n = 12",12 (100) n (%)
same,"Adverse events with suspected relationship to everolimus: Total, Grade 3","[2]; 5 mg/day, n = 12",3 (25.0) n (%)
same,"Adverse events with suspected relationship to everolimus: Total, Grade 4","[2]; 5 mg/day, n = 12",0 n (%)
same,"Anemia, All grades",[2]; [5],1 (8.3) n (%)
same,"Anemia, Grade 3",[2]; [5],1 (8.3) n (%)
same,"Anemia, Grade 4",[2]; [5],0 n (%)
same,"Blood alkaline phosphatase increased, All grades",[2]; [5],1 (8.3) n (%)
same,"Blood alkaline phosphatase increased, Grade 3",[2]; [5],0 n (%)
same,"Blood alkaline phosphatase increased, Grade 4",[2]; [5],0 n (%)
same,"Fatigue, All grades",[2]; [5],2 (16.7) n (%)
same,"Fatigue, Grade 3",[2]; [5],0 n (%)
same,"Fatigue, Grade 4",[2]; [5],0 n (%)
same,"Hyperglycemia, All grades",[2]; [5],2 (16.7) n (%)
same,"Hyperglycemia, Grade 3",[2]; [5],0 n (%)
same,"Hyperglycemia, Grade 4",[2]; [5],0 n (%)
same,"Hypokalemia, All grades",[2]; [5],3 (25.0) n (%)
same,"Hypokalemia, Grade 3",[2]; [5],1 (8.3) n (%)
same,"Hypokalemia, Grade 4",[2]; [5],0 n (%)
same,"Thrombocytopenia, All grades",[2]; [5],2 (16.7) n (%)
same,"Thrombocytopenia, Grade 3",[2]; [5],1 (8.3) n (%)
same,"Thrombocytopenia, Grade 4",[2]; [5],0 n (%)
same,"Upper respiratory tract infection, All grades",[2]; [5],1 (8.3) n (%)
same,"Upper respiratory tract infection, Grade 3",[2]; [5],1 (8.3) n (%)
same,"Fatigue suspected to be related to everolimus, patients",[2]; 10 mg/day cohort,33.3%
same,"Hyperglycemia (increased blood glucose) suspected to be related to everolimus, patients",[2]; 10 mg/day cohort,41.7%
same,Patients with grade 3 adverse events suspected to be related to everolimus,[2]; 10 mg/day cohort,25%
same,Deaths during the study,[2]; 10 mg/day cohort,2
same,"Adverse events with suspected relationship to everolimus: Total, All grades","[2]; 10 mg/day, n = 12",12 (100) n (%)
same,"Adverse events with suspected relationship to everolimus: Total, Grade 3","[2]; 10 mg/day, n = 12",3 (25.0) n (%)
same,"Adverse events with suspected relationship to everolimus: Total, Grade 4","[2]; 10 mg/day, n = 12",0 n (%)
same,"Anemia, All grades",[2]; [6],3 (25.0) n (%)
same,"Anemia, Grade 3",[2]; [6],0 n (%)
same,"Anemia, Grade 4",[2]; [6],0 n (%)
same,"Blood alkaline phosphatase increased, All grades",[2]; [6],3 (25.0) n (%)
same,"Blood alkaline phosphatase increased, Grade 3",[2]; [6],1 (8.3) n (%)
same,"Blood alkaline phosphatase increased, Grade 4",[2]; [6],0 n (%)
same,"Fatigue, All grades",[2]; [6],4 (33.3) n (%)
same,"Fatigue, Grade 3",[2]; [6],1 (8.3) n (%)
same,"Fatigue, Grade 4",[2]; [6],0 n (%)
same,"Hyperglycemia, All grades",[2]; [6],5 (41.7) n (%)
same,"Hyperglycemia, Grade 3",[2]; [6],1 (8.3) n (%)
same,"Hyperglycemia, Grade 4",[2]; [6],0 n (%)
same,"Hypokalemia, All grades",[2]; [6],2 (16.7) n (%)
same,"Hypokalemia, Grade 3",[2]; [6],0 n (%)
same,"Hypokalemia, Grade 4",[2]; [6],0 n (%)
same,"Thrombocytopenia, All grades",[2]; [6],3 (25.0) n (%)
same,"Thrombocytopenia, Grade 3",[2]; [6],0 n (%)
same,"Thrombocytopenia, Grade 4",[2]; [6],0 n (%)
same,"Upper respiratory tract infection, All grades",[2]; [6],0 n (%)
same,"Upper respiratory tract infection, Grade 3",[2]; [6],0 n (%)
same,"Upper respiratory tract infection, Grade 4",[2]; [6],0 n (%)
same,Noninfectious pneumonitis,[2]; 5 and 10 mg/day cohorts,not observed
same,Tolerability,"[2]; 5 or 10 mg/day, Chinese patients with advanced solid tumors",well tolerated
same,Patients reporting ≥1 adverse event,"[2]; both cohorts, 24 patients in total",24 patients
same,"Grade 3 upper respiratory tract infection, patients","[2]; whole study, reversible with remedial treatment and interruption of everolimus",1 patient
same,"Progressive disease as best overall response, patients",[3]; 5 mg/day cohort,16.7%
same,"Best overall tumor response stable disease, patients",[3]; 5 mg/day cohort,83% and 83.3%
same,Median duration of stable disease,"[3]; 5 mg/day cohort, 95% CI 2.89-8.05",5.03 months
same,"Progressive disease as best overall response, patients",[3]; 10 mg/day cohort,41.7%
same,"Best overall tumor response stable disease, patients",[3]; 10 mg/day cohort,50%
same,Median duration of stable disease,"[3]; 10 mg/day cohort, 95% CI 3.58-not reached",6.08 months
same,Median duration of stable disease,"[3]; 4 patients with RCC, at data cutoff, 95% CI 6.08-11.1+",not yet been reached
same,Complete or partial responses,"[3]; 5 and 10 mg/day cohorts, RECIST",No complete or partial responses
same,Patients with stable disease,[3]; NSCLC,4 patients
same,Patients with stable disease,[3]; RCC,4 patients
same,Patients with stable disease,[3]; breast cancer,3 patients
same,Patients with stable disease,[3]; gastric cancer,5 patients
same,Discontinued: Death,[4]; 5 mg/day,0 n (%)
same,Discontinued: Disease progression,[4]; 5 mg/day,9 (75.0) n (%)
same,Discontinued: Death,[4]; 10 mg/day,2 (16.7) n (%)
same,Discontinued: Disease progression,[4]; 10 mg/day,7 (58.3) n (%)
